Test results published in US20230085307A1, “PYRIDAZINONE COMPOUND AND HERBICIDE” (NISSAN CHEMICAL CORPORATION, priority 2019, published 2023).

Legend:
barnyard grass [1] = test: Test Example 3: herbicidal effect by foliage application, Wagner pot (Table 18, symbol H); assay type: in vivo, barnyard grass (Echinochloa crus-galli)
How it was run: (§1)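 Plants were sown in alluvial soil held under 0.1–0.5 cm standing water and grown 14 days in a greenhouse at 25–30 °C. An emulsifiable formulation, water-diluted to the set dose, was then sprayed onto the foliage, and effects were scored three weeks later using previously defined criteria.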

Chinese sprangletop = test: Test Example 3: herbicidal effect by foliage application, Wagner pot (Table 18, symbol D); assay type: in vivo, chinese sprangletop (Leptochloa chinensis)
How it was run: as §1

rice flat sedge = test: Test Example 3: herbicidal effect by foliage application, Wagner pot (Table 18, symbol E); assay type: in vivo, rice flat sedge (Cyperus iria)
How it was run: as §1

southern crabgrass [2] = test: Test Example 4: herbicidal effect by soil treatment (Table 19, symbol F); assay type: in vivo, southern crabgrass (Digitaria ciliaris); conditions: amount of applied herbicide 320 g/ha
How it was run: (§2)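 In this soil treatment, the formulated compound reached the seeds only through the soil: seeds were buried about 1.5 cm deep in sterilized diluvial soil, then the diluted emulsion was sprayed over the surface. After three weeks at 25° C. to 30° C. in a greenhouse, effects were graded on criteria from an earlier test.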

green foxtail [3] = test: Test Example 4: herbicidal effect by soil treatment (Table 19, symbol G); assay type: in vivo, green foxtail (Setaria viridis); conditions: amount of applied herbicide 320 g/ha
How it was run: as §2

barnyard grass [4] = test: Test Example 4: herbicidal effect by soil treatment (Table 19, symbol H); assay type: in vivo, barnyard grass (Echinochloa crus-galli); conditions: amount of applied herbicide 320 g/ha
How it was run: as §2

wild oat [5] = test: Test Example 4: herbicidal effect by soil treatment (Table 19, symbol I); assay type: in vivo, wild oat (Avena fatua); conditions: amount of applied herbicide 320 g/ha
How it was run: as §2

blackgrass [6] = test: Test Example 4: herbicidal effect by soil treatment (Table 19, symbol J); assay type: in vivo, blackgrass (Alopecurus myosuroides); conditions: amount of applied herbicide 320 g/ha
How it was run: as §2

Italian ryegrass [7] = test: Test Example 4: herbicidal effect by soil treatment (Table 19, symbol K); assay type: in vivo, Italian ryegrass (Lolium multiflorum); conditions: amount of applied herbicide 320 g/ha
How it was run: as §2

windgrass [8] = test: Test Example 4: herbicidal effect by soil treatment (Table 19, symbol L); assay type: in vivo, windgrass (Apera spica-venti); conditions: amount of applied herbicide 320 g/ha
How it was run: as §2

velvetleaf [9] = test: Test Example 4: herbicidal effect by soil treatment (Table 19, symbol M); assay type: in vivo, velvetleaf (Abutilon theophrasti); conditions: amount of applied herbicide 320 g/ha
How it was run: as §2

lambsquarters [10] = test: Test Example 4: herbicidal effect by soil treatment (Table 19, symbol O); assay type: in vivo, lambsquarters (Chenopodium album); conditions: amount of applied herbicide 320 g/ha
How it was run: as §2

chickweed [11] = test: Test Example 4: herbicidal effect by soil treatment (Table 19, symbol P); assay type: in vivo, common chickweed (Stellaria media); conditions: amount of applied herbicide 320 g/ha
How it was run: as §2

persian speedwell [12] = test: Test Example 4: herbicidal effect by soil treatment (Table 19, symbol R); assay type: in vivo, Persian speedwell (Veronica persica); conditions: amount of applied herbicide 320 g/ha
How it was run: as §2

southern crabgrass [13] = test: Test Example 5: herbicidal effect by foliage application, plastic box (Table 20, symbol F); assay type: in vivo, southern crabgrass (Digitaria ciliaris); conditions: 320 g/ha, evaluated three weeks after application
How it was run: (§3)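 Plants were sown into sterilized diluvial soil under about 1.5 cm cover and kept in a greenhouse at 25° C. to 30° C. Fourteen days on, foliage received an even spray of the diluted emulsion. Herbicidal or crop effect was judged three weeks afterwards.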

green foxtail [14] = test: Test Example 5: herbicidal effect by foliage application, plastic box (Table 20, symbol G); assay type: in vivo, green foxtail (Setaria viridis); conditions: 320 g/ha, evaluated three weeks after application
How it was run: as §3

barnyard grass [15] = test: Test Example 5: herbicidal effect by foliage application, plastic box (Table 20, symbol H); assay type: in vivo, barnyard grass (Echinochloa crus-galli); conditions: 320 g/ha, evaluated three weeks after application
How it was run: as §3

wild oat [16] = test: Test Example 5: herbicidal effect by foliage application, plastic box (Table 20, symbol I); assay type: in vivo, wild oat (Avena fatua); conditions: 320 g/ha, evaluated three weeks after application
How it was run: as §3

blackgrass [17] = test: Test Example 5: herbicidal effect by foliage application, plastic box (Table 20, symbol J); assay type: in vivo, blackgrass (Alopecurus myosuroides); conditions: 320 g/ha, evaluated three weeks after application
How it was run: as §3

Italian ryegrass [18] = test: Test Example 5: herbicidal effect by foliage application, plastic box (Table 20, symbol K); assay type: in vivo, Italian ryegrass (Lolium multiflorum); conditions: 320 g/ha, evaluated three weeks after application
How it was run: as §3

windgrass [19] = test: Test Example 5: herbicidal effect by foliage application, plastic box (Table 20, symbol L); assay type: in vivo, windgrass (Apera spica-venti); conditions: foliage application, 320 g/ha, evaluated three weeks after application
How it was run: as §3

velvetleaf [20] = test: Test Example 5: herbicidal effect by foliage application, plastic box (Table 20, symbol M); assay type: in vivo, velvetleaf (Abutilon theophrasti); conditions: 320 g/ha, evaluated three weeks after application
How it was run: as §3

redroot pigweed [21] = test: Test Example 5: herbicidal effect by foliage application, plastic box (Table 20, symbol N); assay type: in vivo, redroot pigweed (Amaranthus retroflexus); conditions: 320 g/ha, evaluated three weeks after application
How it was run: as §3

lambsquarters [22] = test: Test Example 5: herbicidal effect by foliage application, plastic box (Table 20, symbol O); assay type: in vivo, lambsquarters (Chenopodium album); conditions: 320 g/ha, evaluated three weeks after application
How it was run: as §3

chickweed [23] = test: Test Example 5: herbicidal effect by foliage application, plastic box (Table 20, symbol P); assay type: in vivo, common chickweed (Stellaria media); conditions: 320 g/ha, evaluated three weeks after application
How it was run: as §3

persian speedwell [24] = test: Test Example 5: herbicidal effect by foliage application, plastic box (Table 20, symbol R); assay type: in vivo, Persian speedwell (Veronica persica); conditions: 320 g/ha, evaluated three weeks after application
How it was run: as §3

redroot pigweed [25] = test: Test Example 4: herbicidal effect by soil treatment (Table 19, symbol N); assay type: in vivo, redroot pigweed (Amaranthus retroflexus); conditions: amount of applied herbicide 320 g/ha
How it was run: as §2

[26] = amount of applied herbicide 320 g/ha
[27] = foliage application after 14-day growth

SMILES: CCCC(=O)Oc1c(C)nn(C)c(=O)c1-c1c(-c2ccc(C#N)cc2)sc2ccc(C)cc12 [2-147]
- herbicidal effect on H: barnyard grass (barnyard grass [1]; [26]): 1 (Herbicidal rate of 5% or more and less than 20%)
- herbicidal effect on D: Chinese sprangletop (Chinese sprangletop; [26]): 0 (Herbicidal rate of 5% or less (almost no effect))
- herbicidal effect on E: rice flat sedge (rice flat sedge; [26]): 5 (Herbicidal rate of 90% or more (almost completely withered))
- F: southern crabgrass, herbicidal effect rating (southern crabgrass [2]): 0 (Herbicidal rate of 5% or less (almost no effect))
- G: green foxtail, herbicidal effect rating (green foxtail [3]): 0 (Herbicidal rate of 5% or less (almost no effect))
- H: barnyard grass, herbicidal effect rating (barnyard grass [4]): 0 (Herbicidal rate of 5% or less (almost no effect))
- I: wild oat, herbicidal effect rating (wild oat [5]): 0 (Herbicidal rate of 5% or less (almost no effect))
- J: blackgrass, herbicidal effect rating (blackgrass [6]): 0 (Herbicidal rate of 5% or less (almost no effect))
- K: Italian ryegrass, herbicidal effect rating (Italian ryegrass [7]): 0 (Herbicidal rate of 5% or less (almost no effect))
- L: windgrass, herbicidal effect rating (windgrass [8]): 0 (Herbicidal rate of 5% or less (almost no effect))
- M: velvetleaf, herbicidal effect rating (velvetleaf [9]): 0 (Herbicidal rate of 5% or less (almost no effect))
- O: lambsquarters, herbicidal effect rating (lambsquarters [10]): 0 (Herbicidal rate of 5% or less (almost no effect))
- P: chickweed, herbicidal effect rating (chickweed [11]): 4 (Herbicidal rate of 70% or more and less than 90%)
- R: persian speedwell, herbicidal effect rating (persian speedwell [12]): 5 (Herbicidal rate of 90% or more (almost completely withered))
- herbicidal effect on F: southern crabgrass (criteria 0-5) (southern crabgrass [13]; foliage application): 0 (Herbicidal rate of 5% or less (almost no effect))
- herbicidal effect on G: green foxtail (criteria 0-5) (green foxtail [14]; foliage application): 0 (Herbicidal rate of 5% or less (almost no effect))
- herbicidal effect on H: barnyard grass (criteria 0-5) (barnyard grass [15]; foliage application): 0 (Herbicidal rate of 5% or less (almost no effect))
- herbicidal effect on I: wild oat (criteria 0-5) (wild oat [16]; foliage application): 0 (Herbicidal rate of 5% or less (almost no effect))
- herbicidal effect on J: blackgrass (criteria 0-5) (blackgrass [17]; foliage application): 0 (Herbicidal rate of 5% or less (almost no effect))
- herbicidal effect on K: Italian ryegrass (criteria 0-5) (Italian ryegrass [18]; foliage application): 0 (Herbicidal rate of 5% or less (almost no effect))
- herbicidal effect on L: windgrass (criteria 0-5) (windgrass [19]): 0 (Herbicidal rate of 5% or less (almost no effect))
- herbicidal effect on M: velvetleaf (criteria 0-5) (velvetleaf [20]; foliage application): 4 (Herbicidal rate of 70% or more and less than 90%)
- herbicidal effect on N: redroot pigweed (criteria 0-5) (redroot pigweed [21]; foliage application): 5 (Herbicidal rate of 90% or more (almost completely withered))
- herbicidal effect on O: lambsquarters (criteria 0-5) (lambsquarters [22]; foliage application): 3 (Herbicidal rate of 40% or more and less than 70%)
- herbicidal effect on P: chickweed (criteria 0-5) (chickweed [23]; foliage application): 5 (Herbicidal rate of 90% or more (almost completely withered))
- herbicidal effect on R: persian speedwell (criteria 0-5) (persian speedwell [24]; foliage application): 5 (Herbicidal rate of 90% or more (almost completely withered))

SMILES: Cc1nn(C)c(=O)c(-c2c(-c3ccc(F)cc3)sc3c(F)cccc23)c1O [4-001]
- herbicidal effect on barnyard grass (H) (barnyard grass [1]; 320 g/ha): 4 (Herbicidal rate of 70% or more and less than 90%)
- herbicidal effect on Chinese sprangletop (D) (Chinese sprangletop; 320 g/ha): 3 (Herbicidal rate of 40% or more and less than 70%)
- herbicidal effect on rice flat sedge (E) (rice flat sedge; 320 g/ha): 5 (Herbicidal rate of 90% or more (almost completely withered))
- Herbicidal effect by soil treatment, F: southern crabgrass (southern crabgrass [2]): 0 (Herbicidal rate of 5% or less (almost no effect))
- Herbicidal effect by soil treatment, G: green foxtail (green foxtail [3]): 0 (Herbicidal rate of 5% or less (almost no effect))
- Herbicidal effect by soil treatment, H: barnyard grass (barnyard grass [4]): 0 (Herbicidal rate of 5% or less (almost no effect))
- Herbicidal effect by soil treatment, I: wild oat (wild oat [5]): 0 (Herbicidal rate of 5% or less (almost no effect))
- Herbicidal effect by soil treatment, J: blackgrass (blackgrass [6]): 0 (Herbicidal rate of 5% or less (almost no effect))
- Herbicidal effect by soil treatment, K: Italian ryegrass (Italian ryegrass [7]): 0 (Herbicidal rate of 5% or less (almost no effect))
- Herbicidal effect by soil treatment, L: windgrass (windgrass [8]): 0 (Herbicidal rate of 5% or less (almost no effect))
- Herbicidal effect by soil treatment, M: velvetleaf (velvetleaf [9]): 3 (Herbicidal rate of 40% or more and less than 70%)
- Herbicidal effect by soil treatment, N: redroot pigweed (redroot pigweed [25]): 2 (Herbicidal rate of 20% or more and less than 40%)
- Herbicidal effect by soil treatment, O: lambsquarters (lambsquarters [10]): 5 (Herbicidal rate of 90% or more (almost completely withered))
- Herbicidal effect by soil treatment, P: chickweed (chickweed [11]): 4 (Herbicidal rate of 70% or more and less than 90%)
- Herbicidal effect by soil treatment, R: persian speedwell (persian speedwell [12]): 4 (Herbicidal rate of 70% or more and less than 90%)
- herbicidal effect on F: southern crabgrass (evaluation grade 0-5) (southern crabgrass [13]; [27]): 0 (Herbicidal rate of 5% or less (almost no effect))
- herbicidal effect on G: green foxtail (evaluation grade 0-5) (green foxtail [14]; [27]): 4 (Herbicidal rate of 70% or more and less than 90%)
- herbicidal effect on H: barnyard grass (evaluation grade 0-5) (barnyard grass [15]; [27]): 2 (Herbicidal rate of 20% or more and less than 40%)
- herbicidal effect on I: wild oat (evaluation grade 0-5) (wild oat [16]; [27]): 0 (Herbicidal rate of 5% or less (almost no effect))
- herbicidal effect on J: blackgrass (evaluation grade 0-5) (blackgrass [17]; [27]): 2 (Herbicidal rate of 20% or more and less than 40%)
- herbicidal effect on K: Italian ryegrass (evaluation grade 0-5) (Italian ryegrass [18]; [27]): 2 (Herbicidal rate of 20% or more and less than 40%)
- herbicidal effect on M: velvetleaf (evaluation grade 0-5) (velvetleaf [20]; [27]): 5 (Herbicidal rate of 90% or more (almost completely withered))
- herbicidal effect on N: redroot pigweed (evaluation grade 0-5) (redroot pigweed [21]; [27]): 3 (Herbicidal rate of 40% or more and less than 70%)
- herbicidal effect on O: lambsquarters (evaluation grade 0-5) (lambsquarters [22]; [27]): 2 (Herbicidal rate of 20% or more and less than 40%)
- herbicidal effect on P: chickweed (evaluation grade 0-5) (chickweed [23]; [27]): 5 (Herbicidal rate of 90% or more (almost completely withered))
- herbicidal effect on R: persian speedwell (evaluation grade 0-5) (persian speedwell [24]; [27]): 5 (Herbicidal rate of 90% or more (almost completely withered))
